The values that follow come from US6953801B2, “Melanin concentrating hormone receptor ligands: substituted 1-benzyl-4-aryl piperazine analogues” (Neurogen Corporation, priority 2001, dated 2005).

The structures appear in SMILES notation.

As a reminder, the melting point is the temperature, or range, at which the solid turns liquid. With `COc1cc(N2CCN([C@H](C)c3ccc(OC)c(OC)c3)CC2)ccc1Cl` [compound 4, (R)-1-(4-Chloro-3-Methoxy-Phenyl)-4-[1-(3,4-Dimethoxy-Phenyl)-Ethyl]-Piperazine], the melting point was in the range of 172 to 176 °C.
